Patent US12629400B2, “Pharmaceutical compositions and methods for treating or preventing bacterial infections in humans and in animals” (LaGray, Inc., priority 2023, dated 2026)
Converted amounts (≈) assume the structure as drawn. Where two headings read alike, the source gives them in different places.

Key:
Type in all cases: cell-based
[1] = test system: Staphylococcus aureus; experiment: Agar dilution antibacterial susceptibility (MIC)
[2] = test system: Legionella pneumophila; experiment: microbe, parasite or virus in culture
[3] = test system: E. faecium (VRE); experiment: Agar dilution antibacterial susceptibility (MIC); conditions: Enterococcus faecium
[4] = test system: Streptococcus pyogenes; experiment: Agar dilution antibacterial susceptibility (MIC)
[5] = test system: Enterococcus faecium; experiment: Agar dilution antibacterial susceptibility (MIC)
[6] = test system: S. aureus (MRSA); experiment: Agar dilution antibacterial susceptibility (MIC); conditions: Staphylococcus aureus
[7] = test system: Chlamydia pneumoniae; experiment: Agar dilution antibacterial susceptibility (MIC)
[8] = test system: Klebsiella pneumoniae; experiment: Agar dilution antibacterial susceptibility (MIC)
[9] = test system: Streptococcus pneumoniae; experiment: Agar dilution antibacterial susceptibility (MIC)
[10] = test system: Moraxella catarrhalis; experiment: Agar dilution antibacterial susceptibility (MIC)
[11] = test system: S. pneumoniae (DRSP); experiment: Agar dilution antibacterial susceptibility (MIC); conditions: Streptococcus pneumoniae
[12] = test system: Hemophilus influenzae; experiment: Agar dilution antibacterial susceptibility (MIC); conditions: Haemophilus influenzae
[13] = test system: Clostridium difficile; experiment: Agar dilution antibacterial susceptibility (MIC); conditions: Clostridioides difficile
[14] = E. faecium (VRE), agar dilution, read-out: MIC
[15] = S. aureus (MRSA), agar dilution, read-out: MIC
[16] = S. pneumoniae (DRSP), agar dilution, read-out: MIC
[17] = Hemophilus influenzae, agar dilution, read-out: MIC

Row | Compound | MIC ([1]; agar dilution, read-out: MIC) [µg/mL] | MIC [2] [µg/mL] | MIC [3, 14] [µg/mL] | MIC ([4]; agar dilution, read-out: MIC) [µg/mL] | MIC ([5]; agar dilution, read-out: MIC) [µg/mL] | MIC [6, 15] [µg/mL] | MIC ([7]; agar dilution, read-out: MIC) [µg/mL] | MIC ([8]; agar dilution, read-out: MIC) [µg/mL] | MIC ([9]; agar dilution, read-out: MIC) [µg/mL] | MIC ([10]; agar dilution, read-out: MIC) [µg/mL] | MIC [11, 16] [µg/mL] | MIC [12, 17] [µg/mL] | MIC [13] [µg/mL] | other results
1 | O=C(O)c1cn(C2CC2)c2cc(N3CCNCC3)c(F)cc2c1=O [Ciprofloxacin, ciprofloxacin] | 0.06 (≈ 0.181 µM) | 0.06 (≈ 0.181 µM) | 2 (≈ 6.04 µM) | 0.5 (≈ 1.51 µM) | 0.5 (≈ 1.51 µM) | 32 (≈ 96.6 µM) | 0.12 (≈ 0.362 µM) | 0.06 (≈ 0.181 µM) | 0.13 (≈ 0.392 µM) | 0.25 (≈ 0.754 µM) | 2 (≈ 6.04 µM) | 0.15 (≈ 0.453 µM) | – | –
2 | CN(C)c1ccc(O)c2c1C[C@H]1C[C@H]3[C@H](N(C)C)C(O)=C(C(N)=O)C(=O)[C@@]3(O)C(O)=C1C2=O [Minocycline, minocycline] | 0.25 (≈ 0.546 µM) | 0.12 (≈ 0.262 µM) | 16 (≈ 35 µM) | 0.12 (≈ 0.262 µM) | 0.5 (≈ 1.09 µM) | 8 (≈ 17.5 µM) | 0.5 (≈ 1.09 µM) | 0.13 (≈ 0.284 µM) | 0.5 (≈ 1.09 µM) | 0.03 (≈ 0.0656 µM) | 16 (≈ 35 µM) | 0.25 (≈ 0.546 µM) | 0.5 (≈ 1.09 µM) | –
3 | CN[C@H](CC(C)C)C(=O)N[C@H]1C(=O)N[C@@H](CC(N)=O)C(=O)N[C@H]2C(=O)N[C@H]3C(=O)N[C@H](C(=O)N[C@H](C(=O)O)c4cc(O)cc(O)c4-c4cc3ccc4O)[C@H](O)c3ccc(c(Cl)c3)Oc3cc2cc(c3O[C@@H]2O[C@H](CO)[C@@H](O)[C@H](O)[C@H]2O[C@H]2C[C@](C)(N)[C@H](O)[C@H](C)O2)Oc2ccc(cc2Cl)[C@H]1O [Vancomycin, vancomycin] | – | 0.06 (≈ 0.0414 µM) | – | – | – | – | – | – | – | – | – | – | 0.5 (≈ 0.345 µM) | MIC [1]: 0.13 µg/mL (≈ 0.0897 µM); MIC ([3]; VRE): 125 µg/mL (≈ 86.3 µM); MIC [4]: 0.06 µg/mL (≈ 0.0414 µM); MIC [5]: 1 µg/mL (≈ 0.69 µM); MIC ([6]; MRSA): 2 µg/mL (≈ 1.38 µM); MIC [7]: 0.5 µg/mL (≈ 0.345 µM); MIC [8]: 0.5 µg/mL (≈ 0.345 µM); MIC [9]: 0.25 µg/mL (≈ 0.173 µM); MIC [10]: 0.01 µg/mL (≈ 0.0069 µM); MIC [11]: 0.5 µg/mL (≈ 0.345 µM); MIC [12]: 0.06 µg/mL (≈ 0.0414 µM)
